Data as given in the NIST ThermoML archive (doi:10.1021/je201334p).

Tests used:
[1] = xn = mol fraction of the nth substance listed; conditions: 101 kPa, Liquid; for speed of sound: Sing-around technique in a fixed-path interferometer; for mass density: Vibrating tube method
[2] = refractive index (Na D-line) (dimensionless); xn = mol fraction of the nth substance listed; conditions: 101 kPa, Liquid, Standard Abbe refractometry

CCCCCCn1cc[n+](C)c1.N#CN=C=[N-] [1-hexyl-3-methylimidazolium dicyanamide] + O
Conditions | mass density, 288.15 K [kg/m3] | mass density, 298.15 K [kg/m3] | mass density, 308.15 K [kg/m3] | refractive index, 288.15 K | refractive index, 298.15 K | refractive index, 308.15 K | speed of sound, 288.15 K [m/s] | speed of sound, 298.15 K [m/s] | speed of sound, 308.15 K [m/s]
[1], x2 = 0 | 1034.76 | 1028.56 | 1022.4 | – | – | – | 1713.4 | 1687.7 | 1662.7
[1], x2 = 0.0785 | 1034.48 | 1028.25 | 1022.07 | – | – | – | 1713.4 | 1688.1 | 1663.1
[1], x2 = 0.1191 | 1034.31 | 1028.07 | 1021.88 | – | – | – | 1713.8 | 1688.3 | 1663.3
[1], x2 = 0.2124 | 1033.88 | 1027.61 | 1021.38 | – | – | – | 1714.3 | 1688.9 | 1664
[1], x2 = 0.3055 | 1033.38 | 1027.08 | 1020.81 | – | – | – | 1715 | 1689.7 | 1664.8
[1], x2 = 0.4019 | 1032.76 | 1026.41 | 1020.08 | – | – | – | 1715.8 | 1690.6 | 1665.8
[1], x2 = 0.5096 | 1031.9 | 1025.46 | 1019.04 | – | – | – | 1717 | 1692.1 | 1667.6
[1], x2 = 0.6069 | 1030.86 | 1024.31 | 1017.78 | – | – | – | 1717.9 | 1693.4 | 1668.9
[1], x2 = 0.7123 | 1029.08 | 1022.4 | 1015.71 | – | – | – | 1717.1 | 1693.2 | 1669.1
[1], x2 = 0.8067 | 1026.34 | 1019.6 | 1012.81 | – | – | – | 1709.4 | 1687.6 | 1665.3
[1], x2 = 0.9031 | 1020.46 | 1014.13 | 1007.62 | – | – | – | 1672 | 1659.1 | 1644.5
[1], x2 = 0.9499 | 1014.51 | 1009.12 | 1003.34 | – | – | – | 1618.9 | 1618.6 | 1614.6
[2], x2 = 0 | – | – | – | 1.50729 | 1.50415 | 1.501 | – | – | –
[2], x2 = 0.0785 | – | – | – | 1.50599 | 1.50284 | 1.49962 | – | – | –
[2], x2 = 0.1191 | – | – | – | 1.50525 | 1.5021 | 1.49894 | – | – | –
[2], x2 = 0.2124 | – | – | – | 1.50333 | 1.50016 | 1.49698 | – | – | –
[2], x2 = 0.3055 | – | – | – | 1.50096 | 1.4978 | 1.49462 | – | – | –
[2], x2 = 0.4019 | – | – | – | 1.49784 | 1.49467 | 1.49131 | – | – | –
[2], x2 = 0.5096 | – | – | – | 1.49312 | 1.48997 | 1.48679 | – | – | –
[2], x2 = 0.6069 | – | – | – | 1.48721 | 1.48405 | 1.48083 | – | – | –
[2], x2 = 0.7123 | – | – | – | 1.47716 | 1.474 | 1.47076 | – | – | –
[2], x2 = 0.8067 | – | – | – | 1.46233 | 1.45924 | 1.4559 | – | – | –
[2], x2 = 0.9031 | – | – | – | 1.43179 | 1.42902 | 1.42645 | – | – | –
[2], x2 = 0.9499 | – | – | – | 1.40179 | 1.39945 | 1.39679 | – | – | –
